These results are taken from EP0643060A2, “Sulfonylbenzyl-substituted benzimidazoles, process for their preparation, and their pharmaceutical use” (BAYER AG, priority 1993, dated 1995).

One assay concerns the target T1, Angiotensin II-Rezeptor (Bos taurus, UniProt P25104).
T1 construct: an partiell gereinigten Membranfraktionen boviner NNR mit radioaktivem Angiotensin II; from tissue; host or cells: bovine adrenal cortex, partially purified membrane fractions
T1 sequence (P25104 1-359): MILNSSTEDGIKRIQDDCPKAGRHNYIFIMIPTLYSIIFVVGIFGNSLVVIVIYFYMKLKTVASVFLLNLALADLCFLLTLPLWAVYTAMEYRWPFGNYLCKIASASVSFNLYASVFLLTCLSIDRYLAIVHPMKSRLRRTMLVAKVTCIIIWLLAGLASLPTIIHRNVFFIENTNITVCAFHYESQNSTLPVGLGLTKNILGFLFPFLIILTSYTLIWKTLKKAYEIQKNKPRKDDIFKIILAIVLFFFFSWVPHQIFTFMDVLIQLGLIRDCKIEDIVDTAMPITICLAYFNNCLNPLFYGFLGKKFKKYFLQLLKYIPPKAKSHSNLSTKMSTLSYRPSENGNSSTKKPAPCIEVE
Description: Angiotensin II receptor binding on membrane fractions of bovine adrenal cortex (3H-angiotensin II). More on the design: species or system Rind. Conditions: bovine adrenal cortex membranes, 3H-Angiotensin II 3-5 nM, 60 min, room temperature. As for the experimental part: Nebennierenrinden vom Rind (NNR), die frisch entnommen und sorgfältig von Mark von Kapsel befreit sind, werden in Sucrose-Lösung (0,32 M) mit Hilfe eines Ultra-Turrax (Janke & Kunkel, Staufen i.B.) zu grobem Membran-Homogenat zerkleinert und in zwei Zentrifugationsschritten zu Membranfraktionen partiell aufgereinigt. Die Untersuchungen zur Rezeptor-Bindung werden an partiell gereinigten Membranfraktionen boviner NNR mit radioaktivem Angiotensin II in einem Assay-Volumen von 0,25 ml durchgeführt, das im einzelnen die partiell gereinigten Membranen (50 - 80 µg), ³H-Angiotensin II (3-5 nM), Test-Pufferlösung (50 mM Tris, pH 7,2, 5 mM MgCl₂ sowie die zu untersuchenden Substanzen enthält. Nach einer Inkubationszeit von 60 min bei Raumtemperatur wird die nicht gebundene Radioaktivität der Proben mittels angefeuchteter Glasfaserfilter (Whatman GF/C) separiert und die gebundene Radioaktivität nach Waschung des Proteins mit eiskalter Pufferlösung (50 mM Tris/HCl, pH 7,4, 5% PEG 6000) in einem Szintillationscocktail […] gemessen. Die Analyse der Rohdaten erfolgte mit Computer-Programmen zu Ki- bzw. IC₅₀-Werten (Ki: für die verwendete Radioaktivität korrigierte IC₅₀-Werte; IC₅₀-Werte: Konzentration bei der die zu untersuchende Substanz eine 50%ige Hemmung der spezifischen Bindung des Radioliganden bewirkt).

Assay [1] has as its system isolierten Aortenringen von Kaninchen. Description: Inhibition of angiotensin II-induced contraction of isolated rabbit aortic rings. Type of assay: cell-based. Conditions: isolated rabbit aortic rings in vitro; effect at 3rd (submaximal) agonist concentration; read-out: IC50 gegen Kontraktionen, induziert durch AII. The procedure:
Kaninchen beiderlei Geschlechts werden durch Nackenschlag betäubt und entblutet, oder fallweise mit Nembutal (ca. 60 - 80 mg/kg i.v.) narkotisiert und durch Öffnung des Thorax getötet. Die Thoraxaorta wird entnommen, von anhaftendem Bindegewebe befreit, in 1,5 mm breite Ringsegmente geteilt und einzeln unter einer Anfangsbelastung von ca. 3,5 g in 10 ml Organbäder mit auf 37°C temperierter, Carbogen-begaster Krebs-Henseleit-Nährlösung folgender Zusammensetzung: 119 mmol/l NaCl; 2,5 mmol/l CaCl₂ x 2 H₂O; 1,2 mmol/l KH₂PO₄; 10 mmol/l Glucose; 4,8 mmol/l KCl; 1,4 mmol/l MgSO₄ x 7 H₂O und 25 mmol/l NaHCO₃ verbracht.
Die Kontraktionen werden isometrisch durch Statham UC2-Zellen über Brückenverstärker (ifd Mülheim bzw. DSM Aalen) erfaßt und mittels A/D-Wandler (System 570, Keithley München) digitalisiert sowie ausgewertet. Die Durchführung von Agonistdosiswirkungskurven (DWK) erfolgt stündlich. Mit jeder DWK werden 3 bzw. 4 Einzelkonzentrationen im 4 min-Abstand in die Bäder appliziert. Nach Ende der DWK und darauffolgender Auswaschzyklen (16 mal jeweils ca. 5 sec/min mit der o.a. Nährlösung) schließt sich eine 28-minütige Ruhe- bzw. Inkubationsphase an, innerhalb derer die Kontraktionen in der Regel wieder den Ausgangswert erreichen.
Die Höhe der im Normalfall 3. […]

Where two headings read alike, the source gives them in different places.

With `CCCCc1nc2cccc(C(=O)OC)c2n1Cc1ccc(S(=O)(=O)N2CCC[C@H]2C(=O)OC(C)(C)C)cc1F` [Beispiel 4], at Angiotensin II-Rezeptor (read-out: Ki), the Ki amounted to 0.735 µM.

`CCCCc1nc2cccc(C(=O)OC)c2n1Cc1ccc(S(=O)(=O)N2CCCC2C(=O)O)cc1Cl` (stereo in doubt) [Beispiel 2, (S)-2-Butyl-1-[3-chlor-1-(N-2'-carboxy-pyrrolidinyl)-sulfonyl]-7-methoxycarbonyl-benz[d]imidazol]: the IC50 in assay [1] came out at 0.046 µM.

The compound `CCCCc1nc2cccc(C(=O)O)c2n1Cc1ccc(S(=O)(=O)N2CCC[C@H]2C(=O)O)cc1Cl` [Beispiel 7, (S)-2-Butyl-7-carboxy-1-[3-chlor-1-(N-2-carboxypyrrolidinyl)-sulfonyl]benz[d]imidazol Bis Kaliumsalz] yielded a Ki on Angiotensin II-Rezeptor of 0.26 µM.

`CCCCc1nc2cccc(C(=O)O)c2n1Cc1ccc(S(=O)(=O)N2CCC[C@H]2C(=O)O)cc1Cl` [Beispiel 3, (S)-2-Butyl-7-carboxy-1-[3-chlor-1-(N-2-carboxy-pyrrolidinyl)-sulfonyl]-benz[d]imidazol] returned a Ki at Angiotensin II-Rezeptor of 0.048 µM.

The term Ki denotes the equilibrium dissociation constant of an inhibitor or competing ligand from its target. A word on the IC50: it is the concentration at which inhibition is half-maximal.
